Patent publication US10925846B2, “Phenylketone carboxylate compounds and pharmaceutical compositions for the prevention and treatment of osteoporosis” (Liminal BioSciences Limited, priority 2014, dated 2021)

Legend:
[1] = system: LPS-stimulated RAW264.7 cells; test: IL-12 production in LPS-stimulated RAW264.7 cells (IL-12 ELISA); format: cell-based, murine
Experimental: Accordingly, RAW264.7 cells are cultured with 100 ng/mL of LPS in presence or absence of the compound(s) for 21 h in a humidified atmosphere of 95% air-5% carbon dioxide at 37° C. IL-12 concentration in the culture medium is measured using the IL-12 ELISA according to the manufacturer (BD Biosciences) recommendations. […] Accordingly, an in vitro IL-12 production assay was used for screening potential inhibitors of osteoclastogenesis.

[2] = system: ovariectomized (OVX) rats; test: Ovariectomized-rat model of osteoporosis; format: in vivo, Sprague Dawley rats
Source text: Although in comparison to humans, the skeletal mass of rats remains stable for a protracted period during their lifespan, rats can be ovariectomized to make them sex-hormone deficient, and to stimulate the accelerated loss of bone that occurs in women following menopause. Ovariectomy induced bone loss in the rat and postmenopausal bone loss share many similar characteristics. These include: increased rate of bone turnover with resorption exceeding formation; an initial rapid phase of bone loss followed by a much slower phase; greater loss of cancellous than cortical bone; decreased intestinal absorption of calcium; some protection against bone loss by obesity; and similar skeletal response to therapy with estrogen, tamoxifen, bisphosphonates, parathyroid hormone, calcitonin and exercise. These wide-ranging similarities are strong evidence that the ovariectomized rat bone loss model is suitable for studying problems that are relevant to postmenopausal bone loss.
Sprague Dawley rats (250 g) were ovariectomized (OVX) at day 0. Rats were treated by oral gavage with Compound I (10 mg/kg) from day 14 to day 68. Evaluation of different parameters (body weight, calcium loss, osteoclast markers (RANKL and TRAP mRNA expression), collagen content and histology was performed at day 68.

RAW264.7 cells = details: cited from earlier work
[3] = compound concentration 0.020 mM

## CCCCCCCCC(Oc1ccc(C(=O)CCCCCCC)cc1)C(=O)[O-].[Na+] (racemic) [Compound I, Sodium (RS)-2-[4-Octanoylphenoxy]decanoate]
[1]; compound concentration 0.0075 mM
  IL-12: 112 pg/mL
[2]; 10 mg/kg oral gavage day 14 to day 68, FIG. 1
  body weight / ovariectomized-induced obesity: reduced ovariectomized-induced obesity
[2]; 10 mg/kg oral gavage, day 28 to day 56, FIG. 2
  calcium loss in urine: reduced significantly
[2]; 10 mg/kg oral gavage, day 28 to day 56, FIG. 3
  acid phosphatase activity in serum: reduced
[2]; 10 mg/kg oral gavage, day 68, FIG. 4
  ratio of mRNA expression of RANKL/OPG in rat tibia: decreased
[2]; 10 mg/kg oral gavage, day 68, FIG. 5
  collagen content in the metaphyse of the femur: increased
[2]; 10 mg/kg oral gavage, day 68, FIGS. 6 and 7
  bone loss in the metaphysis portion of the femur (histology): reduced bone loss

## CCCCCCCC(=O)c1cccc2c1CC(C(=O)[O-])C2.[Na+] (racemic) [Compound III, Sodium (RS)-4-Octanoylindane-2-carboxylate]
[1]; compound concentration 0.1 mM
  IL-12: 24.95 pg/mL

## CCCCCCCC(=O)c1ccc(OC(CCCCCC)C(=O)[O-])cc1.[Na+] (racemic) [Compound IV, Sodium (RS)-2-[4-Octanoylphenoxy]octanoate]
[1]; [3]
  IL-12: 12.13 pg/mL
other
  melting point: 165 to 170 °C

## CCCCCCCCC(Oc1ccc(C(=O)CCC)cc1)C(=O)[O-].[Na+] (racemic) [Compound V, Sodium (RS)-2-[4-Butyrylphenoxy]decanoate]
[1]; compound concentration 0.040 mM
  IL-12: 73.32 pg/mL
other
  melting point: 262 to 278 °C

## CCCCCCCCC(Oc1ccc(C(=O)CCCCC)cc1)C(=O)[O-].[Na+] (racemic) [Compound VI, Sodium (RS)-2-[4-Hexanoylphenoxy]decanoate]
[1]; [3]
  IL-12: 53.5 pg/mL
other
  melting point: 275 to 280 °C

## CCCCCCCCC(Cc1ccc(C(=O)CCCCCCC)cc1)C(=O)[O-].[Na+] (racemic) [Compound VII, Sodium (RS)-2-[4-Octanoylbenzyl]decanoate]
[1]; compound concentration 0.012 mM
  IL-12: 8 pg/mL

## CCCCCCCCCC(=O)O [capric acid]
RAW264.7 cells; LPS-stimulated RAW264.7 cells
  IL-12 production: increases
RAW264.7 cells; LPS
  LPS-upregulated iNOS mRNA levels and nitric oxide (NO) production: inhibited
RAW264.7 cells; RAW264.7 cells
  phosphatase (TRAP)-positive cells (osteoclast differentiation marker): reduction
RAW264.7 cells
  monocyte chemoattractant protein-1 (MCP-1) mRNA expression: inhibited
